Here are results for 25 compounds from ChEMBL document CHEMBL3407375, “Substituted pyrrolidin-2-ones: Centrally acting orexin receptor antagonists promoting sleep. Part 2” (Bioorg Med Chem Lett, 2015).

For data set [1], the system named is Rattus norvegicus. Description: Induction of sleep in Wistar rat assessed as decrease in home cage activity at 100 mg/kg, po after 12 hrs relative to control. Type of data set: functional.
A short description of data set [2]: Intrinsic metabolic clearance in rat liver microsomes at 1 uM. Type of data set: ADME. The conditions noted are these: read-out: CLH.
Data set [3] concerns the target T1, Cytochrome P450 3A4 (Homo sapiens, UniProt P08684). Description: Inhibition of CYP3A4 (unknown origin) using testosterone as marker substrate. Format: ADME.
The subject of data set [4] is Rattus norvegicus. Put plainly: Induction of sleep in Wistar rat assessed as decrease in time spent in active wake at 100 mg/kg, po after 12 hrs relative to control. Type of data set: functional.
Data set [5] has as its system MDR1. Put plainly: Passive apparent permeability from apical to basolateral side in MDCK cells expressing human MDR1. Type of data set: ADME, cell-based, Canis lupus familiaris. Conditions: dog; call rule not given here.
Data set [6] has as its target T1, Cytochrome P450 3A4. Description: Inhibition of CYP3A4 (unknown origin). Type of data set: ADME.
A short description of data set [7]: Ratio of drug level in brain to plasma in Wistar rat at 100 mg/kg, po afer 3 hrs. Type of data set: ADME, organism-based. Set-up: dose 100 mg/kg, route oral. The conditions noted are these: read-out: BPR.
In data set [8] the test system is Rattus norvegicus. Put plainly: Induction of sleep in Wistar rat assessed as time spent in REM sleep at 100 mg/kg, po after 12 hrs (reference value: 6%). Type of data set: functional.
Data set [9] deals with Rattus norvegicus. Put plainly: Induction of sleep in Wistar rat assessed as increase in time spent in REM sleep at 100 mg/kg, po after 12 hrs relative to control. Type of data set: functional.
Data set [10] addresses T2, Cytochrome P450 2C9 (Homo sapiens, UniProt P11712). Description: Time dependent inhibition of CYP2C9 (unknown origin). Format: ADME.
The subject of data set [11] is Rattus norvegicus. Description: Induction of sleep in Wistar rat assessed as time spent in non-REM sleep at 100 mg/kg, po after 12 hrs (reference value: 29.8%). Format: functional.
Data set [12] in a line: Drug level in Wistar rat brain measured per gram of tissue at 100 mg/kg, po after 3 hrs. Format: ADME, organism-based. On the set-up: dose 100 mg/kg, route oral. The conditions noted are these: read-out: Drug uptake.
Data set [13] is described as follows: Intrinsic metabolic clearance in human liver microsomes at 1 uM. Format: ADME. The conditions noted are these: read-out: CLH.
For data set [14], the system named is Rattus norvegicus. Put plainly: Induction of sleep in Wistar rat assessed as time spent in active wake at 100 mg/kg, po after 12 hrs (reference value: 44.6%). Type of data set: functional.
Data set [15] concerns Rattus norvegicus. Description: Induction of sleep in Wistar rat assessed as increase in time spent in non-REM sleep at 100 mg/kg, po after 12 hrs relative to control. Type of data set: functional.
Data set [16] concerns the target T1, Cytochrome P450 3A4. Put plainly: Time dependent inhibition of CYP3A4 (unknown origin). Format: ADME.
The test system of data set [17] is MDR1. Put plainly: Passive apparent permeability from basolateral to apical side in MDCK cells expressing human MDR1. The conditions noted are these: dog. Format: ADME, cell-based, Canis lupus familiaris.
The target of data set [18] is T3, Cytochrome P450 2D6 (Homo sapiens, UniProt P10635). Description: Time dependent inhibition of CYP2D6 (unknown origin). Type of data set: ADME.
The subject of data set [19] is Rattus norvegicus. Put plainly: Induction of sleep in Wistar rat assessed as time spent in quiet wake at 100 mg/kg, po after 12 hrs (reference value: 19.5%). Type of data set: functional.
Data set [20] has as its target T2, Cytochrome P450 2C9. Put plainly: Inhibition of CYP2C9 (unknown origin). Format: ADME.
Data set [21] addresses T3, Cytochrome P450 2D6. Description: Inhibition of CYP2D6 (unknown origin). Type of data set: ADME.
Data set [22] concerns the target Orexin/Hypocretin receptor type 1 (Homo sapiens, UniProt O43613). Put plainly: Antagonist activity at human orexin 1 receptor expressed in CHO cells assessed as inhibition of orexin-A-induced calcium mobilization by FLIPR assay. Format: functional, cell-based.
Data set [23] is described as follows: Drug level in Wistar rat plasma at 100 mg/kg, po after 3 hrs. Format: ADME, organism-based. On the set-up: dose 100 mg/kg, route oral.
Data set [24] can be described thus: Plasma protein binding in Wistar rat at 100 mg/kg, po after 3 hrs. Format: ADME, organism-based. On the set-up: dose 100 mg/kg, route oral. The conditions noted are these: read-out: PPB.
A further data set concerns the target Orexin receptor type 2 (Homo sapiens, UniProt O43614). Description: Antagonist activity at human orexin 2 receptor expressed in CHO cells assessed as inhibition of orexin-A-induced calcium mobilization by FLIPR assay. Format: functional, cell-based.
In data set [25] the test system is Rattus norvegicus. Put plainly: Induction of sleep in Wistar rat assessed as time spent in quiet wake at 100 mg/kg, po after 12 hrs (reference value: 32.8%). Type of data set: functional.
In data set [26] the test system is Rattus norvegicus. Put plainly: Induction of sleep in Wistar rat assessed as time spent in REM sleep at 100 mg/kg, po after 12 hrs (reference value: 4.7%). Type of data set: functional.
The subject of data set [27] is Rattus norvegicus. Description: Induction of sleep in Wistar rat assessed as time spent in non-REM sleep at 100 mg/kg, po after 12 hrs (reference value: 32.1%). Format: functional.
Data set [28] has as its system Rattus norvegicus. Put plainly: Induction of sleep in Wistar rat assessed as time spent in active wake at 100 mg/kg, po after 12 hrs (reference value: 30%). Format: functional.

Bounds are passed on as bounds.

T1 sequence (P08684 whole entry): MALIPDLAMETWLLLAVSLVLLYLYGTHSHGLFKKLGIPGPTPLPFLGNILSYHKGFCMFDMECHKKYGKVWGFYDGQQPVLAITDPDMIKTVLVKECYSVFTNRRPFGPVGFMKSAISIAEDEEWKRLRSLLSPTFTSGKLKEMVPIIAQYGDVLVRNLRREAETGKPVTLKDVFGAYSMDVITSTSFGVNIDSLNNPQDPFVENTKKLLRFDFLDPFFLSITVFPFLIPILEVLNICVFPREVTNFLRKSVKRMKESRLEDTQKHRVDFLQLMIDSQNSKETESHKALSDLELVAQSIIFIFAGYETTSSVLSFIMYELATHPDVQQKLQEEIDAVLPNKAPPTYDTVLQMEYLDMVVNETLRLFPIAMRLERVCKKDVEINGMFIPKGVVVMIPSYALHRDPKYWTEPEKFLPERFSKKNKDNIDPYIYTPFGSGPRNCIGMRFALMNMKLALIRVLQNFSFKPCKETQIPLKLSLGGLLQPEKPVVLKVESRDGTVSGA
Chain of Orexin/Hypocretin receptor type 1 (O43613 whole entry, looked up): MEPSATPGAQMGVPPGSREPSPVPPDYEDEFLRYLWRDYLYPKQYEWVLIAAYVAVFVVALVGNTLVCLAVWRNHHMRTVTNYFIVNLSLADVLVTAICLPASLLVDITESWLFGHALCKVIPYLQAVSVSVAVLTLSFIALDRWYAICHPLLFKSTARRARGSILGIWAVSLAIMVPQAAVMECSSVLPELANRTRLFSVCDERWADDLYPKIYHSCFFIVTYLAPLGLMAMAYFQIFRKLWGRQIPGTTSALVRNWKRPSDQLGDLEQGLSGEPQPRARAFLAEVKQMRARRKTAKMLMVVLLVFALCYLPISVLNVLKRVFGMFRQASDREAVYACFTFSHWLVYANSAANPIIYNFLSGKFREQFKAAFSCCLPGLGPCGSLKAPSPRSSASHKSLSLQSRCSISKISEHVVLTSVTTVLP
Chain of Orexin receptor type 2 (O43614 whole entry, looked up): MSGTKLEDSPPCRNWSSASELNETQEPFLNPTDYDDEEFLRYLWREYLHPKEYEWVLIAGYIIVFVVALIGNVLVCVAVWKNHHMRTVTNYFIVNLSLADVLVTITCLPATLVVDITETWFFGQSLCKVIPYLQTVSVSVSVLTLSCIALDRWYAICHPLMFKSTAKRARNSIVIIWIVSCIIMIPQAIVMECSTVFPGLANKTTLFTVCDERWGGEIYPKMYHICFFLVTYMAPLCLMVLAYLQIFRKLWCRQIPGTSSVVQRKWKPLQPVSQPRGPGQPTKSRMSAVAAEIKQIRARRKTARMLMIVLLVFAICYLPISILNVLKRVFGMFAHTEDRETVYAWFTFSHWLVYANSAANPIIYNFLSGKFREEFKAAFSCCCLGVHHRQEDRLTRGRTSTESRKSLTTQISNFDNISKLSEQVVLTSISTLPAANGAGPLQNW
T3 sequence (P10635 whole entry): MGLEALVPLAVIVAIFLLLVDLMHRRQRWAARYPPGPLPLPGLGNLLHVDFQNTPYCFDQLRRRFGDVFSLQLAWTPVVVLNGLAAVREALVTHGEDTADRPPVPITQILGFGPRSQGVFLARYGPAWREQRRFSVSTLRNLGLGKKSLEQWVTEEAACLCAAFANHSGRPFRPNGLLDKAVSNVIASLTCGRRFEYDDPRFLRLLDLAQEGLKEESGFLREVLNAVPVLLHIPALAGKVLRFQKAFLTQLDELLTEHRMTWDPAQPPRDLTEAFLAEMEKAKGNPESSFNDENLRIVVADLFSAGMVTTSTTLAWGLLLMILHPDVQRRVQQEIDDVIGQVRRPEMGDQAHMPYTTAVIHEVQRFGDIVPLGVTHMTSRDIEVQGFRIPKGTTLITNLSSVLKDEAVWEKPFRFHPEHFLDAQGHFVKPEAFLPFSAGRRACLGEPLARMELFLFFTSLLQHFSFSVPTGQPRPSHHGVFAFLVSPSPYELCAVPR
T2 sequence (P11712 whole entry): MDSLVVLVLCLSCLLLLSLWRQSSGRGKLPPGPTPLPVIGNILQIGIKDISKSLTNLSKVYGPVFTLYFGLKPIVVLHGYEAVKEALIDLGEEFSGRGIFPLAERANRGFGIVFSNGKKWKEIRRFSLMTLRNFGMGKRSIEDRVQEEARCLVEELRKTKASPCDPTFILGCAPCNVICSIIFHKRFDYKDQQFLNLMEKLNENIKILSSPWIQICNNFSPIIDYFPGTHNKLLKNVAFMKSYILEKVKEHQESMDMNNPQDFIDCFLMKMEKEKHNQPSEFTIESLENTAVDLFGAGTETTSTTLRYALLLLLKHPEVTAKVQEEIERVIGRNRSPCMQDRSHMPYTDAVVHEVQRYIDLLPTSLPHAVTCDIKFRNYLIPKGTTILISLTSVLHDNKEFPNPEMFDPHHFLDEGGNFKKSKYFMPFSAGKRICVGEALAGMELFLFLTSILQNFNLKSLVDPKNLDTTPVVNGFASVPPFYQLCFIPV

With `COc1cccc(F)c1[C@@H]1C[C@@H](O)C(=O)N1Cc1ccc2oc3ccccc3c2c1`, the inhibition in vivo at 100 mg/kg is 35% in the data set with Rattus norvegicus [1] and 20% with Rattus norvegicus [4]. For the same compound, the microsomal CLint at 1 µM in data set [2] is > 1250 µL/min/mg; in data set [13], 102 µL/min/mg. In addition, the IC50 against Cytochrome P450 3A4 [3] was > 50 µM; against Cytochrome P450 3A4 [6], > 50 µM; on Cytochrome P450 2C9 [20], 9.4 µM; on Cytochrome P450 2D6 [21], 47 µM. Also, in the data set with MDR1 [5], the Papp A→B is 12.5 ×10⁻⁶ cm/s. The Kp at 3 h in data set [7] stood at 2.3. Further, the Activity is recorded as 7.1% with Rattus norvegicus [8]; 38% in the data set on Rattus norvegicus [9]; 34.4% in the data set with Rattus norvegicus [11]; 39.2% in the data set with Rattus norvegicus [14]; 20% with Rattus norvegicus [15]; 19.2% in the data set on Rattus norvegicus [19]. The TDI entry on Cytochrome P450 2C9 [10], on Cytochrome P450 3A4 [16] and at Cytochrome P450 2D6 [18] was “Not Active” in each case. Also, the concentration at 3 h in [12] amounted to 585 ng/g. Further, the Papp B→A with MDR1 [17] turned out to be 26.6 ×10⁻⁶ cm/s.

`COc1cccc(F)c1C1C[C@@H](O)C(=O)N1Cc1ccc2oc3ccccc3c2c1` (mixture of isomers): on Cytochrome P450 3A4 [3], inhibition was half-maximal at 46 µM (IC50). The microsomal CLint at 1 µM in data set [13] was determined as 96 µL/min/mg.

`COc1cccc(OC)c1[C@@H]1C[C@H](C)C(=O)N1Cc1ccc(OC(F)(F)F)cc1` (racemic) yielded an IC50 against Cytochrome P450 3A4 [3] of 8.7 µM.

For `COc1cccc(OC)c1[C@@H]1C[C@@H](C)C(=O)N1Cc1ccc(OC(F)(F)F)cc1` (racemic), the microsomal CLint at 1 µM in data set [13] is 257 µL/min/mg.

For the compound `CC[C@H]1C[C@@H](c2c(OC)cccc2OC)N(Cc2ccc(OC(F)(F)F)cc2)C1=O` (racemic), the IC50 in data set [22] was 3.61 µM.

Take `COc1cccc(OC)c1[C@@H]1C[C@H](Cl)C(=O)N1Cc1ccc(OC(F)(F)F)cc1` (racemic): the figures for the IC50 (against Cytochrome P450 3A4 [3]; in [22]) were 6.6 µM and 0.041 µM, respectively. In addition, the microsomal CLint at 1 µM in data set [13] was 277 µL/min/mg.

`COc1cccc(OC)c1[C@@H]1C[C@@H](Cl)C(=O)N1Cc1ccc(OC(F)(F)F)cc1` (racemic): the IC50 in data set [22] was found to be 0.563 µM.

Consider `COc1cccc(OC)c1[C@@H]1C[C@H](F)C(=O)N1Cc1ccc(OC(F)(F)F)cc1` (racemic), for which the concentration at 3 h in [23] amounted to 87 ng/mL; in [12], 270 ng/g. In addition, the Kp at 3 h in data set [7] came to 3.1. Moreover, the fraction unbound at 3 h in [24] came out at 0.01. The microsomal CLint at 1 µM in data set [13] turned out to be 233 µL/min/mg.

As for `COc1cccc(OC)c1C1CC(F)(F)C(=O)N1Cc1ccc(OC(F)(F)F)cc1` (racemic), the IC50 at Cytochrome P450 3A4 [3] came to 5.2 µM. In [13], the microsomal CLint at 1 µM was 232 µL/min/mg.

In turn, `COc1cccc(OC)c1[C@@H]1C[C@@H](O)C(=O)N1Cc1ccc(OC(F)(F)F)cc1` (racemic) displayed an IC50 against Cytochrome P450 3A4 [3] of 25 µM. For the same compound, the microsomal CLint at 1 µM in data set [13] worked out at 142 µL/min/mg.

Regarding `COc1cccc(OC)c1[C@@H]1C[C@H](OC)C(=O)N1Cc1ccc(OC(F)(F)F)cc1` (racemic), the IC50 against Cytochrome P450 3A4 [3] was found to be 1.4 µM; in [22] it was 0.168 µM.

Consider `CCO[C@H]1C[C@@H](c2c(OC)cccc2OC)N(Cc2ccc(OC(F)(F)F)cc2)C1=O` (racemic), for which the IC50 is 3.96 µM on Orexin receptor type 2 and > 10 µM in data set [22].

As for `COc1cccc(OC)c1[C@@H]1C[C@@H](OC)C(=O)N1Cc1ccc(OC(F)(F)F)cc1` (racemic), the IC50 in data set [22] amounted to 6.94 µM.

With `COc1cccc(OC)c1[C@@H]1C[C@H](N)C(=O)N1Cc1ccc(OC(F)(F)F)cc1` (racemic), the IC50 at Orexin receptor type 2 was found to be 7.03 µM; in [22], 9.49 µM.

For `COc1cccc(OC)c1[C@@H]1C[C@@H](N)C(=O)N1Cc1ccc(OC(F)(F)F)cc1` (racemic), the IC50 at Orexin receptor type 2 stood at 1.98 µM; in data set [22], 2.05 µM.

Consider `CN[C@H]1C[C@@H](c2c(OC)cccc2OC)N(Cc2ccc(OC(F)(F)F)cc2)C1=O` (racemic), for which the IC50 is 5.78 µM at Orexin receptor type 2 and > 10 µM in data set [22].

As to `CN[C@@H]1C[C@@H](c2c(OC)cccc2OC)N(Cc2ccc(OC(F)(F)F)cc2)C1=O` (racemic), the results for the IC50 (on Orexin receptor type 2; in data set [22]) were 2.4 µM and 5.81 µM, respectively.

Turning to `COc1cccc(OC)c1[C@@H]1C[C@H](N(C)C)C(=O)N1Cc1ccc(OC(F)(F)F)cc1` (racemic), the IC50 worked out at 8.72 µM at Orexin receptor type 2 and 8.3 µM in [22].

Consider `COc1cccc(OC)c1[C@@H]1C[C@@H](N(C)C)C(=O)N1Cc1ccc(OC(F)(F)F)cc1` (racemic), for which the IC50 on Orexin receptor type 2 is 3.62 µM; in [22], > 10 µM.

For `COc1cccc(OC)c1C1CCC(=O)N1Cc1ccc2oc3ccccc3c2c1` (racemic), inhibition on Cytochrome P450 3A4 [3] was half-maximal at 6.9 µM (IC50). The microsomal CLint at 1 µM in [13] came out at 577 µL/min/mg.

With `COc1cccc(OC)c1[C@@H]1C[C@H](F)C(=O)N1Cc1ccc2oc3ccccc3c2c1` (racemic), the midpoint of inhibition on Cytochrome P450 3A4 [3], the IC50, lay at 8.8 µM. Besides, the microsomal CLint at 1 µM in data set [13] stood at 363 µL/min/mg.

Turning to `COc1cccc(OC)c1[C@@H]1C[C@H](Cl)C(=O)N1Cc1ccc2oc3ccccc3c2c1` (racemic), the IC50 in [22] was 0.005 µM.

As for `COc1cccc(OC)c1[C@@H]1C[C@@H](O)C(=O)N1Cc1ccc2oc3ccccc3c2c1` (racemic), the IC50 in data set [22] worked out at 0.004 µM. Also, the microsomal CLint at 1 µM in data set [13] came to 128 µL/min/mg.

Take `COc1cccc(F)c1[C@@H]1C[C@H](F)C(=O)N1Cc1ccc2oc3ccccc3c2c1` (racemic): on Cytochrome P450 3A4 [3], the midpoint of inhibition, the IC50, lay at 21 µM. Also, the microsomal CLint at 1 µM in data set [13] came to 349 µL/min/mg.

As for `CNC(=O)[C@@H](c1ccccc1)N1CCc2cc(OC)c(OC)cc2[C@@H]1CCc1ccc(C(F)(F)F)cc1` [ALMOREXANT], the Activity was 31% in the data set on Rattus norvegicus [25], 6.5% with Rattus norvegicus [26], 38.5% with Rattus norvegicus [27] and 24% in the data set on Rattus norvegicus [28]. The inhibition in vivo at 100 mg/kg in the data set on Rattus norvegicus [1] is 43%.
